Test results published in patent US6653354B2, “NMDA antagonist comprising xenon” (priority 1999, dated 2003).

Assays:
[1] = system: neurons of arcuate nucleus of hypothalamus; test: NMA-induced neuron injury in the arcuate nucleus (neuroprotection in vivo); set-up: species or system Sprague Dawley female adult rats; conditions: MK801 0.5 mg/kg s.c. + NMA 100 mg/kg s.c.
Procedure: It can be seen that NMA caused neuronal degeneration and vacuoulated swelling in the neuropil giving a spongiform appearance in the arcuate nucleus (E). The degenerated neuron has a pyknotic nucleus, which look like “bulls' eyes” because of oedematous swelling of the cytoplasmic compartment.
Rats were injected with NMA (100 mg/kg) sc and sacrificed 4 hours later after exposure to air (“NMA”; n=7) or xenon 75% (“75% xenon+NMA”; n=8). (For comparison the effect of MK801, the NMDA antagonist, is also shown). The arcuate nucleus was removed and sectioned and stained with cresyl violet. Control animals (“PS”; n=6) had neither NMA nor xenon administered. Data are reflected as either the mean of three sections/animal (upper) or the sum (lower) of degenerated neurons in both arcuate nuclei.

[2] = system: c Fos expression in arcuate nucleus of hypothalamus; test: c Fos expression in arcuate nucleus after NMA (inhibition of synaptic plasticity in vivo); set-up: species or system Sprague Dawley female adult rats; conditions: MK801 0.5 mg/kg s.c. + NMA 100 mg/kg s.c.
Description: With exposure to NMA neuronal activation is enhanced (E vs A) which is indicative of synaptic plasticity. In the presence of both Xenon (D) and MK 801 (B), synaptic plasticity induced by NMA is inhibited. […] This is sometimes referred to as long term potentiation, an example of synaptic plasticity. […] The attenuation of c Fos expression is a reflection of the inhibition of synaptic plasticity.

[3] = system: glutamatergic synapses (NMDA receptor slow component, AMPA/KA receptor fast component) of hippocampal neurons; test: Excitatory (glutamatergic) postsynaptic currents, voltage-clamped autaptic hippocampal neurons; type: cell-based, rat
Procedure: Hippocampal neurons were grown in culture using methods described previously (Segal M M et al, J. Neurophysiol. 1990, 64:1390-1399; Bekkers J M et al, Proc. Natl. Acad. Sci. U.S.A. 1991, 88:7834-7838; Mennerick S et al, J. Neurophysiol. 1995, 73:320-332). Briefly, hippocampi from Sprague Dawley rats (postnatal day 1-3) were dissected, roughly sliced and agitated in a papain-containing solution (20 units ml^−1) for 30 minutes at 37 EC. After washing with enzyme-free solution, the tissue was gently triturated with a fire-polished Pasteur pipette and the cells were plated out at a density of 8-10×10^4 cells ml^−1 and cultured (95% air/5% CO2) at 37° C. Glass coverslips used for culturing the cells were first coated with agarose (0.15% w/v) and then sprayed with a fine mist of poly-D-lysine (PDL) and collagen (0.1 mg ml^−1 PDL and 0.5 mg ml^−1 rat-tail collagen) from a glass micro-atomiser and sterilized by UV exposure. This produced micro-islands of permissive substrate with diameters of between 100 and 1000 μm. At 3-4 days after plating, when the glial cell layer was about 80% confluent, an anti-mitotic agent (cytosine β-D-arabinofuranoside, 5 μM) was added to arrest glial cell proliferation. Neuronal cultures were then allowed to mature for another 4-9 days. We used micro-islands which contained single isolated neurons whose axonal processes and dendritic trees formed multiple self-synapses (autapses). This procedure provided a large population of phenotypically identical monosynaptic connections.
The neurons were voltage-clamped using the whole-cell recording technique (Axopatch 200 amplifier, Axon Instruments, Foster City, Calif.). Electrodes were fabricated from borosilicate glass and typically had resistances of between 3-5 MΩ. Series resistance was compensated by 75-90%. Neurons were voltage-clamped at −60 mV, and synaptic responses were stimulated by a 2 ms depolarising pulse to +20 mV. […] For the synaptic measurements, data were sampled at 50 kHz, filtered at 20 kHz (−3 dB, 8-pole Bessel) and stored on a computer. The extracellular recording solution was (mM) 137 NaCl, 5 KCl, 3 CaCl2, 5 HEPES, 10 glucose, 0.001 glycine, 0.0001 strychnine-HCl, titrated to pH 7.3 with NaOH; and the intracellular (pipette) solution was (mM) 140 KCl, 4 NaCl, 0.5 EGTA, 2 MgATP, 10 HEPES, titrated to pH 7.25 with KOH.
Xenon solutions were prepared by first bubbling pure gases (oxygen, nitrogen or xenon) through fine sintered-glass bubblers in 250- or 500-ml Drechsel bottles filled with extracellular recording saline. […] (To minimise oxidization, the neurotoxins and neurotransmitters were excluded from the fully oxygenated saline.) During bubbling, the solutions were continually stirred at room temperature. These solutions were then mixed to achieve the desired final concentrations of the gases. Our control solutions usually contained 80% of the nitrogen solution and 20% of the oxygen solution, while our test solutions usually contained 80% of the xenon solution and 20% of the oxygen solution. Using a Bunsen water/gas partition coefficient of 0.0965 (Smith R A et al, Biochim. Biophys. Acta 1981, 645:327-338) we calculate that our standard test solution contained 3.4 mM xenon. Xenon (research grade, 99.993% pure) was supplied by BOC gases, Guildford, Surrey, UK. In all cases xenon was pre-applied to the neurons for at least 30 seconds before the initiation of synaptic currents.
In order to obtain an estimate for the total charge transfer, the EPSCs or IPSCs were numerically integrated.

[4] = system: adenylyl cyclase (AC) / alpha-2 adrenergic receptors; test: Adenylyl cyclase activity in neuroblastoma X glioma hybrid cell line (synaptic plasticity paradigm); type: cell-based
Description: Perturbation of function in the central nervous system can be produced by a change in the strength of neural connections, which is referred to as synaptic plasticity. The present inventors have used the neuroblastoma X glioma hybrid cell line to examine the effect of xenon on synaptic plasticity. In this paradigm the alpha-2 adrenergic receptors, which are pivotally involved in synaptic transmission, inhibit adenylyl cyclase (AC).
To examine the inhibitory effect of alpha-2 adrenergic receptors on AC it is first necessary to stimulate the endogenous AC with Prostaglandin E1 (PGE1).
To induce “synaptic plasticity” cells are pretreated for 8 hours with norepinephrine; after preparing homogenates from thoroughly washed cells, re-applied norepinephrine loses its inhibitory effect on PGE1-stimulated AC activity.

NMDA receptors = type: cell-based, rat; conditions: neurons clamped at −60 mV
[5] = excitatory currents + 200 μM AP5

## C[C@]12N[C@H](Cc3ccccc31)c1ccccc12 [MK801, reference compound]
[1]
  NMA-induced neuronal injury (cresyl fast violet histology): prevented NMA-induced injury
[2]
  synaptic plasticity induced by NMA (c Fos expression): is inhibited

## NC(CCCP(=O)(O)O)C(=O)O (racemic) [AP5, DL-2-amino-5-phosphononpentanoate, reference compound]
[3]; 200 μM AP5
  reduction in total charge transfer: 75%
[3]; [5]
  Decay half-time % change (means ± SEM): −24.1 ± 3.3%
  Ifast % change (means ± SEM): 6.8 ± 6.2%
  Ipeak % change (means ± SEM): −16.3 ± 2.1%
  Islow % change (means ± SEM): −98.8 ± 0.8%
  Qfast % change (means ± SEM): 5.3 ± 9.6%
  Qslow % change (means ± SEM): −96.0 ± 3.4%
  Total charge transfer % change (means ± SEM): −75.2 ± 2.5%
  τfast % change (means ± SEM): −5.9 ± 2.3%

## NC[C@H](O)c1ccc(O)c(O)c1 [norepinephrine]
[4]; norepinephrine coadministered with PGE1
  effect on PGE1-stimulated AC activity: dose-dependently inhibited

## CCCCC[C@H](O)/C=C/[C@H]1[C@H](O)CC(=O)[C@@H]1CCCCCCC(=O)O [PGE1, Prostaglandin E1]
[4]; increasing doses of PGE1
  effect on adenylyl cyclase (AC) activity: dose-dependently stimulates

## CN[C@H](CC(=O)O)C(=O)O [NMDA, N-methyl-D-aspartate]
NMDA receptors
  Hill coefficient: 1.2±0.1
NMDA receptors; read-out: EC50 for activation of inward current
  EC50: 24 ± 2 µM
